ChEMBL document CHEMBL4680379, “Structure-based Discovery of Cell-Potent Peptidomimetic Inhibitors for Protein N-Terminal Methyltransferase 1” (ACS Med Chem Lett, 2021)
Active and inactive are the calls of the source. The rule behind the calls is not given here.

Key:
[1] = biological target: T1, N-terminal Xaa-Pro-Lys N-methyltransferase 1 (Homo sapiens, UniProt Q9BV86); assay: Inhibition of recombinant human N-terminal His6-tagged NTMT1 (1 to 222 residues) expressed in Escherichia coli BL21-CodonPlus(DE3)-RIL using GPKRIA peptide and SAM as substrate pre-incubated for 10 mins in presence of SAM followed by substrate addition by SAHH coupled fluorescence assay
T1 sequence (Q9BV86 whole entry): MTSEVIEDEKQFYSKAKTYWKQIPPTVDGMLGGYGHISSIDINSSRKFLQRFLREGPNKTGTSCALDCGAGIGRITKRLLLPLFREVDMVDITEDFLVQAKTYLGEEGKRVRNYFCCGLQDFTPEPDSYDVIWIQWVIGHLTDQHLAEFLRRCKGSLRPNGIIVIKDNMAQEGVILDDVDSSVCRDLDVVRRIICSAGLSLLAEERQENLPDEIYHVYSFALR

[2] = biological target: T2, N-terminal Xaa-Pro-Lys N-methyltransferase 1 (Homo sapiens) (UniProt Q9BV86); assay: Inhibition of NTMT1 in human HCT116 cells assessed as decrease in me3-SPK level at 1 mM incubated for 3 days by Western blot analysis relative to control; type: cell-based; details: HCT-116, time 3.0 day
T2 sequence (whole entry): T1 sequence (Q9BV86 whole entry)

[3] = biological target: T2, N-terminal Xaa-Pro-Lys N-methyltransferase 1 (Homo sapiens); assay: Inhibition of NTMT1 in human HCT116 cells assessed as decrease in me3-SPK level at 300 uM incubated for 3 days by Western blot analysis relative to control; type: cell-based; details: HCT-116, time 3.0 day
Trypsin = Trypsin (Homo sapiens, UniProt P07477+P07478+P35030); assay: Stability of compound assessed as trypsin (unknown origin) mediated compound hydrolysis at 10 uM incubated for 1 hr by MALDI-MS analysis; type: ADME, protein assay
[4] = biological target: T2, N-terminal Xaa-Pro-Lys N-methyltransferase 1 (Homo sapiens); assay: Inhibition of NTMT1 in human HCT116 cells assessed as decrease in me3-SPK level at 100 uM incubated for 3 days by Western blot analysis relative to control; type: cell-based; details: HCT-116, time 3.0 day
[5] = biological target: T1, N-terminal Xaa-Pro-Lys N-methyltransferase 1; assay: Inhibition of NTMT1 in human HCT116 cells assessed as decrease in me3-RCC1 level incubated for 3 days by Western blot analysis; type: cell-based, HCT-116
HCT-116 [6] = assay: Cytotoxicity against human HCT116 cells assessed as reduction in cell viability up to 1 mM incubated for 48 hrs by resazurin-dye based alamar blue assay; details: hct-116, 48 h
HCT-116 [7] = assay: Cytotoxicity against human HCT116 cells assessed as reduction in cell viability up to 1 mM incubated for 72 hrs by resazurin-dye based alamar blue assay; details: hct-116, 72 h
[8] = biological target: T1, N-terminal Xaa-Pro-Lys N-methyltransferase 1; assay: Inhibition of NTMT1 in human HT29 cells assessed as decrease in me3-RCC1 level incubated for 3 days by Western blot analysis; type: cell-based, HT-29
[9] = biological target: T3, Histone-lysine N-methyltransferase EHMT2 (Homo sapiens) (UniProt Q96KQ7); assay: Inhibition of human His-tagged G9a (913 to 1193 residues) expressed in Escherichia coli BL21-CodonPlus(DE3)-RIL at 100 uM using H3-21 peptide as substrate preincubated for 10 mins in presence of SAM followed by substrate addition by SAHH-coupled fluorescence assay relative to control
T3 sequence (whole entry): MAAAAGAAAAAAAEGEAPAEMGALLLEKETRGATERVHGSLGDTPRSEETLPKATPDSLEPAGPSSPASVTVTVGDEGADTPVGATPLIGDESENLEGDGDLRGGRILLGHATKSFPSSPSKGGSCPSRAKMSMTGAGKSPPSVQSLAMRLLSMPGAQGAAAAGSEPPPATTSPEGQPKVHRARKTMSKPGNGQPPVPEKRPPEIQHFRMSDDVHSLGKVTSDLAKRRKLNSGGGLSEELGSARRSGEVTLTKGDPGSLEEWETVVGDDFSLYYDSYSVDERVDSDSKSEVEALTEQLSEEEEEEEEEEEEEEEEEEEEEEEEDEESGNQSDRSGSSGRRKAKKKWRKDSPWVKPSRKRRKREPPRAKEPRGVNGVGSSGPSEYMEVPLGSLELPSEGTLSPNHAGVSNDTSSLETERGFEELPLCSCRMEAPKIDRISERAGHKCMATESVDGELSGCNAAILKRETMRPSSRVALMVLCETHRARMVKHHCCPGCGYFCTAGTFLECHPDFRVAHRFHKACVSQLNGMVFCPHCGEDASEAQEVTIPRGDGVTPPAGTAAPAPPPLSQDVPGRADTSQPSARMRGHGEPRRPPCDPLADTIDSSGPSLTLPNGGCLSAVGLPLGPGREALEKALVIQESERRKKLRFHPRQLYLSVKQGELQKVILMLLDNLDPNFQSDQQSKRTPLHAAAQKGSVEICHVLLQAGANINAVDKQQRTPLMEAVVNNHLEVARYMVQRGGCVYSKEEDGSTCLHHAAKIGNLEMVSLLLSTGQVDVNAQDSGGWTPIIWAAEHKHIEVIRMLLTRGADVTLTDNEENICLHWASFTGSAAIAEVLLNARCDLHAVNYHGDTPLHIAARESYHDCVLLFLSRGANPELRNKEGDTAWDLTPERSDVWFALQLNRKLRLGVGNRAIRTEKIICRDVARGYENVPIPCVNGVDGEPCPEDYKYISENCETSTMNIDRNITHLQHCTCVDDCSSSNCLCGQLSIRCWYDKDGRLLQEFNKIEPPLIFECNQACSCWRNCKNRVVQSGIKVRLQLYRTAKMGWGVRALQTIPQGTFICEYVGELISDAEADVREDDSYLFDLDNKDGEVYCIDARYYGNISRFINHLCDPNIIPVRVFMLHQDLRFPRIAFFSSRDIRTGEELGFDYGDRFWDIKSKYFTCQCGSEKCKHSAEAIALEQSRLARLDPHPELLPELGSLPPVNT

Homo sapiens [10] = species: Homo sapiens; assay: Selectivity for recombinant human N-terminal His6-tagged NTMT1 (1 to 222 residues) expressed in Escherichia coli BL21-CodonPlus(DE3)-RIL over His-tagged SETD7 (unknown origin)
Homo sapiens [11] = species: Homo sapiens; assay: Selectivity for recombinant human N-terminal His6-tagged NTMT1 (1 to 222 residues) expressed in Escherichia coli BL21-CodonPlus(DE3)-RIL over PRMT3 (unknown origin)
HCT-116 [12] = assay: Cytotoxicity against human HCT116 cells assessed as reduction in cell viability up to 1 mM incubated for 24 hrs by resazurin-dye based alamar blue assay; details: hct-116, 24 h
Homo sapiens [13] = species: Homo sapiens; assay: Selectivity for recombinant human N-terminal His6-tagged NTMT1 (1 to 222 residues) expressed in Escherichia coli BL21-CodonPlus(DE3)-RIL over PRMT1 (unknown origin)
[14] = biological target: T2, N-terminal Xaa-Pro-Lys N-methyltransferase 1 (Homo sapiens); assay: Inhibition of NTMT1 in human HT29 cells assessed as decrease in me3-RCC1 level at 100 uM incubated for 3 days by Western blot analysis; type: cell-based; details: HT-29, time 3.0 day
Homo sapiens [15] = species: Homo sapiens; assay: Selectivity for recombinant human N-terminal His6-tagged NTMT1 (1 to 222 residues) expressed in Escherichia coli BL21-CodonPlus(DE3)-RIL over human His-tagged G9a (913 to 1193 residues) expressed in Escherichia coli BL21-CodonPlus(DE3)-RIL
HT-29 [16] = assay: Cytotoxicity against human HT29 cells assessed as reduction in cell viability up to 1 mM incubated for 72 hrs by resazurin-dye based alamar blue assay; details: ht-29, 72 h
[17] = biological target: Protein arginine N-methyltransferase 1 (Homo sapiens) (UniProt Q99873); assay: Inhibition of PRMT1 (unknown origin) at 100 uM using H4-21 peptide as substrate preincubated for 10 mins in presence of SAM followed by substrate addition by SAHH-coupled fluorescence assay relative to control
[18] = biological target: T2, N-terminal Xaa-Pro-Lys N-methyltransferase 1 (Homo sapiens); assay: Inhibition of NTMT1 in human HCT116 cells assessed as decrease in me3-RCC1 level at 100 uM incubated for 3 days by Western blot analysis; type: cell-based; details: HCT-116, time 3.0 day
[19] = biological target: Adenosylhomocysteinase (Homo sapiens) (UniProt P23526); assay: Inhibition of SAHH (unknown origin) at 100 uM relative to control
HT-29 [20] = assay: Cytotoxicity against human HT29 cells assessed as reduction in cell viability up to 1 mM incubated for 48 hrs by resazurin-dye based alamar blue assay; details: ht-29, 48 h
Trypanosoma brucei = assay: Inhibition of Trypanosoma brucei N-terminal His6-tagged PRMT7 expressed in Escherichia coli BL21-CodonPlus(DE3)-RIL at 100 uM using H4-21 peptide as substrate preincubated for 10 mins in presence of SAM followed by substrate addition by SAHH-coupled fluorescence assay relative to control
[21] = Selectivity for recombinant human N-terminal His6-tagged NTMT1 (1 to 222 residues) expressed in Escherichia coli BL21-CodonPlus(DE3)-RIL over Trypanosoma brucei N-terminal His6-tagged PRMT7 expressed in Escherichia coli BL21-CodonPlus(DE3)-RIL
[22] = biological target: T4, Histone-lysine N-methyltransferase SETD7 (Homo sapiens) (UniProt Q8WTS6); assay: Inhibition of His-tagged SETD7 (unknown origin) at 100 uM using H3-21 peptide as substrate preincubated for 10 mins in presence of SAM followed by substrate addition by SAHH-coupled fluorescence assay relative to control
T4 sequence (whole entry): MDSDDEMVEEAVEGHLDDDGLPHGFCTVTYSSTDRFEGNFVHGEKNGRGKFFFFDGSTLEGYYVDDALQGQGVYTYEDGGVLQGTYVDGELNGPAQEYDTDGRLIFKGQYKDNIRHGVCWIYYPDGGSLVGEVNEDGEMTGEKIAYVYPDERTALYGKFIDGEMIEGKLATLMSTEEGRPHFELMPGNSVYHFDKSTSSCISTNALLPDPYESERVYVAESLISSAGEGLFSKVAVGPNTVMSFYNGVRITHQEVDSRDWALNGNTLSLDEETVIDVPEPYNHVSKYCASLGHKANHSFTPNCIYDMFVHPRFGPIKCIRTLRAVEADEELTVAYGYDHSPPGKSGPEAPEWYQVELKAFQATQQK

Homo sapiens [23] = species: Homo sapiens; assay: Selectivity for recombinant human N-terminal His6-tagged NTMT1 (1 to 222 residues) expressed in Escherichia coli BL21-CodonPlus(DE3)-RIL over SAHH (unknown origin)
HT-29 [24] = assay: Cytotoxicity against human HT29 cells assessed as reduction in cell viability up to 1 mM incubated for 24 hrs by resazurin-dye based alamar blue assay; details: ht-29, 24 h
[25] = biological target: Protein arginine N-methyltransferase 3 (Homo sapiens) (UniProt O60678); assay: Inhibition of PRMT3 (unknown origin) at 100 uM relative to control
[26] = biological target: T1, N-terminal Xaa-Pro-Lys N-methyltransferase 1; assay: Inhibition of NTMT1 in human HCT116 cells assessed as decrease in me3-SPK level incubated for 3 days by Western blot analysis; type: cell-based, HCT-116
[27] = biological target: T2, N-terminal Xaa-Pro-Lys N-methyltransferase 1 (Homo sapiens); assay: Non-competitive inhibition of recombinant human N-terminal His6-tagged NTMT1 (1 to 222 residues) expressed in Escherichia coli BL21-CodonPlus(DE3)-RIL using GPKRIA peptide and varying concentration of SAM as substrate pre-incubated for 10 mins in presence of SAM followed by fixed concentration of substrate addition and measured for 15 mins by SAHH coupled fluorescence assay; details: time 25.0 min

Chain of Adenosylhomocysteinase (Homo sapiens) (P23526 2-432 limits assumed): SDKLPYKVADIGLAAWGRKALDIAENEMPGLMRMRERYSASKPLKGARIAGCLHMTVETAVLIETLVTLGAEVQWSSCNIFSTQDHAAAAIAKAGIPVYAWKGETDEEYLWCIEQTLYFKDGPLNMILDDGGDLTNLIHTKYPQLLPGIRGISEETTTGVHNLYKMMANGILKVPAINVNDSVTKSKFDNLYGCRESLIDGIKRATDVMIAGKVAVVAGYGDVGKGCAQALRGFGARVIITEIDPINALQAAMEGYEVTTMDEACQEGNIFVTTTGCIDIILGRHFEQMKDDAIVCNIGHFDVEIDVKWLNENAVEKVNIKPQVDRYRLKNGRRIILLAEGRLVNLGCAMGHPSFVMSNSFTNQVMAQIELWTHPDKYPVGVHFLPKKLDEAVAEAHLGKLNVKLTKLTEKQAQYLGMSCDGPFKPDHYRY
Chain of Protein arginine N-methyltransferase 1 (Homo sapiens) (Q99873 whole entry, looked up): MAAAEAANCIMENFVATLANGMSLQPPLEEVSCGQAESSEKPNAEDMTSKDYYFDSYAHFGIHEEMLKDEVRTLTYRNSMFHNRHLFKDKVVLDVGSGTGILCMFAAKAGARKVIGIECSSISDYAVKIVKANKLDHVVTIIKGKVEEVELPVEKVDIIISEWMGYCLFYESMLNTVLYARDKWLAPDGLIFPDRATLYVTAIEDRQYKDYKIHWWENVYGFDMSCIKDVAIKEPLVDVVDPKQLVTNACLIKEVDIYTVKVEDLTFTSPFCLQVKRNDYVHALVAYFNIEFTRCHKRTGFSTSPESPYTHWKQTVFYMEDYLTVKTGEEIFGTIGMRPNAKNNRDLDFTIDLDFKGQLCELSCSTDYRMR
Chain of Protein arginine N-methyltransferase 3 (Homo sapiens) (O60678 2-531 limits assumed): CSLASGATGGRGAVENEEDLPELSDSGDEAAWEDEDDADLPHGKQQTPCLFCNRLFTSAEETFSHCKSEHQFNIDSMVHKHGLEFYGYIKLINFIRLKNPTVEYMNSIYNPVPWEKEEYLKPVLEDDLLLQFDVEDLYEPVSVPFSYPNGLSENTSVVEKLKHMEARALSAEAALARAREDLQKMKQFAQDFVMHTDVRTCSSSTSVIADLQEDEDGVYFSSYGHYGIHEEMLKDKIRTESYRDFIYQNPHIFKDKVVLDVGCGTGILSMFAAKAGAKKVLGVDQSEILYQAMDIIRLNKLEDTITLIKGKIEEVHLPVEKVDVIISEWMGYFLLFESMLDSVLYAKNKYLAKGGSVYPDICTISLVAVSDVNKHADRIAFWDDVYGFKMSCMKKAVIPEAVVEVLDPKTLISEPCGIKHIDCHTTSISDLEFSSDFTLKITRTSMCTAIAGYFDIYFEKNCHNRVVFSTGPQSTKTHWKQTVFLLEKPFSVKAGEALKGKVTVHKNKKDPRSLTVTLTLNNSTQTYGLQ

| Structure (SMILES) | IC50 [1] | inhibition [2] | inhibition [3] | Stabilty (Trypsin) | inhibition [4] | inhibition [9] | Selectivity ratio (Homo sapiens [10]) | Selectivity ratio (Homo sapiens [11]) | Selectivity ratio (Homo sapiens [13]) | Selectivity ratio (Homo sapiens [15]) | inhibition [17] | inhibition [19] | inhibition (Trypanosoma brucei) | Selectivity ratio [21] | inhibition [22] | Selectivity ratio (Homo sapiens [23]) | inhibition [25] | also measured |
| --- | --- | --- | --- | --- | --- | --- | --- | --- | --- | --- | --- | --- | --- | --- | --- | --- | --- | --- |
| N=C(N)NCCC[C@H](NC(=O)[C@H](CCCCN)NC(=O)[C@@H]1CCCN1C(=O)Cc1cccc2ncccc12)C(N)=O | > 100 µM |  |  |  |  |  |  |  |  |  |  |  |  |  |  |  |  |  |
| CN(C(=O)[C@H](CCCCN)NC(=O)[C@@H]1CCCN1C(=O)Cc1cccc2ccccc12)[C@@H](CCCCN)C(N)=O | 0.47 µM | 100% | 48% | Stable | 0% |  |  |  |  |  |  |  |  |  |  |  |  |  |
| NCCCC[C@H](NC(=O)[C@@H]1CCCN1C(=O)Cc1cccc2ccccc12)C(=O)Nc1ccccc1 | 1.1 µM | 79% | 55% |  | 0% |  |  |  |  |  |  |  |  |  |  |  |  |  |
| NCCCC[C@H](NC(=O)[C@@H]1CCCN1C(=O)Cc1cccc2ccccc12)C(=O)Nc1ccccc1C(N)=O |  | 100% | 90% |  | 61% | < 50% | > 300 | > 300 | > 300 | > 300 | < 50% | < 50% | < 50% | > 300 | < 50% | > 300 | < 50% | IC50 [5]: 100 µM; Activity (HCT-116 [6]): Non-Toxic; Activity (HCT-116 [7]): Non-Toxic; IC50 [8]: 30 µM; Activity (HCT-116 [12]): Non-Toxic; inhibition [14]: Active; Activity (HT-29 [16]): Non-Toxic; inhibition [18]: Active; Activity (HT-29 [20]): Non-Toxic; Activity (HT-29 [24]): Non-Toxic |
| N=C(N)NCCC[C@H](NC(=O)[C@H](CCCCN)NC(=O)[C@@H]1CCCN1C(=O)Cc1cccc2ccccc12)C(N)=O | 0.1 µM | 52% | 10% | Unstable | 3% | < 50% | > 1000 | > 1000 | > 1000 | > 1000 | < 50% | < 50% | < 50% | > 1000 | < 50% | > 1000 | < 50% | IC50 [26]: 1000 µM; inhibition [27]: Active |
